What was measured:
Assay type in all cases: in vivo
Puccinia recondita [1] = assay: Protective activity against Puccinia recondita on wheat (brown rust of wheat); settings: single active compound, control 90% infection, read-out: Observed activity (% infection)
Method: (§1) The active compounds, separately or jointly, were prepared as a stock solution comprising 25 mg of active compound which was made up to 10 ml using a mixture of acetone and/or dimethyl sulfoxide and the emulsifier Uniperol® EL (wetting agent having an emulsifying and dispersing action based on ethoxylated alkylphenols) in a ratio by volume of solvent/emulsifier of 99:1. The mixture was then made up to 100 ml with water. This stock solution was diluted with the solvent/emulsifier/water mixture described to give the concentration of active compound stated below.
(§2) Alternatively, the active compounds epoxiconazole and pyraclostrobin were used as a commercial formulation and diluted with water to the stated active compound concentrations.
(§3) The visually determined percentages of infected leaf areas were converted into efficacies in % of the untreated control.
(§4) The efficacy (E) is calculated as follows using Abbot's formula: […]
(§5) α corresponds to the fungicidal infection of the treated plants in % and β corresponds to the fungicidal infection of the untreated (control) plants in %
(§6) An efficacy of 0 means that the infection level of the treated plants corresponds to that of the untreated control plants; an efficacy of 100 means that the treated plants were not infected.
(§7) The expected efficacies of active compound mixtures were determined using Colby's formula [R. S. Colby, “Calculating synergistic and antagonistic responses of herbicide combinations”, Weeds 15, 20-22 (1967)] and compared with the observed efficacies.
(§8) E=x+y−x·y/100 Colby's formula • E expected efficacy, expressed in % of the untreated control, when using the mixture of the active compounds A and B at the concentrations a and b; • x efficacy, expressed in % of the untreated control, when using the active compound A at the concentration a; • y efficacy, expressed in % of the untreated control, when using the active compound B at the concentration b;
Leaves of potted wheat seedlings of the cultivar “Kanzler” were sprayed to runoff point with an aqueous suspension having the concentration of active compound stated below. The next day the treated plants were inoculated with a spore suspension of brown rust of wheat (Puccinia recondita). The plants were then placed in a chamber at high atmospheric humidity (90 to 95%) at 20 to 22° C. for 24 hours. During this time, the spores germinated and the germ tubes penetrated into the leaf tissue. The next day, the test plants were returned to the greenhouse and cultivated at temperatures between 20 and 22° C. and 65 to 70% relative atmospheric humidity for a further 7 days. The extent of the rust fungus development on the leaves was then determined visually.

Puccinia recondita [2] = assay: Curative activity against brown rust of wheat caused by Puccinia recondita; settings: 168 h, single active compound, sprayed the day after inoculation, 7 days, control 90% infection, read-out: Observed activity (% infection)
Method: as §1, §2, §3, §4
(§9) The expected efficacies of active compound mixtures were determined using Colby's formula [R. S. Colby, “Calculating synergistic and antagonistic responses of herbicide combinations”, Weeds 15, 20-22 (1967)] and compared with the observed efficacies. […]
Leaves of wheat seedlings of the cultivar “Kanzler” cultivated in pots were inoculated with a spore suspension of brown rust (Puccinia recondita). […] The extent of the rust fungus development on the leaves was then determined.

Alternaria solani = assay: Activity against early blight on tomatoes caused by Alternaria solani (protective spray, potted tomato plants); settings: 120 h, single active compound, efficacy in % of untreated control (Abbot), evaluated after 5 days, control 90% infection, read-out: Observed activity (% infection); for inhibition at 4 µg/mL: 4 mg/l; for inhibition at 1 µg/mL: 1 mg/l
Method: as §1, §2, §3, §4, §5, §6, §7, §8
Leaves of potted tomato plants were sprayed to runoff point with an aqueous suspension having the concentration of active compounds stated below. The next day, the leaves were infected with an aqueous spore suspension of Alternaria solani in a 2% biomalt solution having a density of 0.17×10^6 spores/ml. The plants were then placed in a water vapor-saturated chamber at temperatures between 20 and 22° C. After 5 days, the disease on the untreated, but infected control plants had developed to such an extent that the infection could be determined visually in %.

[3] = tested on: Pyrenophora [syn. Drechslera] teres; assay: Activity against net blotch of barley caused by Pyrenophora teres, 1 day protective application; settings: 144 h, single active compound, after 6 days, control 90% infection, read-out: Observed activity (% infection); for inhibition at 16 µg/mL: 16 mg/l
Method: as §1, §2, §3, §4, §5, §6, §9
Leaves of potted barley seedlings were sprayed to runoff point with an aqueous suspension having the concentration of active compound stated below. […] After 6 days, the extent of the development of the disease was determined visually in % infection of the entire leaf area.

Botrytis cinerea = assay: Activity against gray mold on bell pepper leaves caused by Botrytis cinerea, 1 day protective application; settings: 120 h, single active compound, 1 mg/l, efficacy in % of untreated control, after 5 days, control 100% infection, read-out: Observed activity (% infection)
Method: as §1, with “below. […]” for “below.”
as §3, §4, §9
Bell pepper seedlings of the cultivar “Neusiedler Ideal Elite” were, after 2-3 leaves were well developed, sprayed to runoff point with an aqueous suspension in the active compound concentration stated below. […] After 5 days, the extent of the fungal infection on the leaves could be determined visually in %.

Fc1ccc([C@]2(Cn3cncn3)O[C@H]2c2ccccc2Cl)cc1 (racemic) [epoxiconazole, (2RS,3SR)-1-[3-(2-chlorophenyl)-2,3-epoxy-2-(4-fluorophenyl)propyl]-1H-1,2,4-triazole]
inhibition at 0.063 µg/mL (Puccinia recondita [1]; 0.063 mg/l): 11% | inhibition at 0.25 µg/mL (Puccinia recondita [2]; 0.25 mg/l): 0%

CC1CCN(c2c(-c3c(F)cc(F)cc3F)c(Cl)nc3ncnn23)CC1 [5-chloro-7-(4-methylpiperidin-1-yl)-6-(2,4,6-trifluorophenyl)-[1,2,4]triazolo[1,5-a]pyrimidine]
inhibition at 4 µg/mL (Alternaria solani): 22%

Cn1cc(C(=O)Nc2ccccc2-c2ccc(Cl)cc2Cl)c(C(F)F)n1 [No. I.7, N-(2′,4′-dichlorobiphenyl-2-yl)-1-methyl-3-difluoromethyl-1H-pyrazole-4-carboxamide]
inhibition at 1 µg/mL (Alternaria solani): 0% | inhibition at 0.25 µg/mL (Puccinia recondita [1]; 0.25 mg/l): 11%

Cn1cc(C(=O)Nc2ccccc2-c2ccc(F)cc2F)c(C(F)F)n1 [No. I.11, N-(2′,4′-difluorobiphenyl-2-yl)-1-methyl-3-difluoromethyl-1H-pyrazole-4-carboxamide]
inhibition at 1 µg/mL (Alternaria solani): 0% | inhibition at 4 µg/mL ([3]; 4 mg/l): 63% | inhibition at 1 µg/mL (Botrytis cinerea): 0%

Cn1nc(C(F)(F)F)c(C(=O)Nc2ccccc2-c2ccc(Cl)cc2Cl)c1F [No. I.17, N-(2′,4′-dichlorobiphenyl-2-yl)-1-methyl-3-trifluoromethyl-5-fluoro-1H-pyrazole-4-carboxamide]
inhibition at 1 µg/mL (Alternaria solani): 0% | inhibition at 16 µg/mL (Puccinia recondita [1]; 16 mg/l): 22% | inhibition at 1 µg/mL (Puccinia recondita [2]; 1 mg/l): 0%

COc1ccc(C(=CC(=O)N2CCOCC2)c2ccc(Cl)cc2)cc1OC [dimethomorph, 3-(4-chlorophenyl)-3-(3,4-dimethoxyphenyl)-1-morpholin-4-ylpropenone]
inhibition at 4 µg/mL (Alternaria solani): 0% | inhibition at 16 µg/mL [3]: 0%

COc1cc(C)c(C(=O)c2c(OC)ccc(Br)c2C)c(OC)c1OC [metrafenone, 3′-bromo-2,3,4,6′-tetramethoxy-2′,6-dimethylbenzophenone]
inhibition at 16 µg/mL [3]: 0% | inhibition at 63 µg/mL (Puccinia recondita [1]; 63 mg/l): 0%

COC(=O)N(OC)c1ccccc1COc1ccn(-c2ccc(Cl)cc2)n1 [pyraclostrobin, methyl N-{2-[1-(4-chlorophenyl)-1H-pyrazol-3-yloxymethyl]phenyl}(N-methoxy)carbamate]
inhibition at 1 µg/mL (Botrytis cinerea): 0%

Source: patent US20090042724A1, “Fungicidal mixtures based on 2,4-disubstituted n-biphenylpyrazolecarboxamides” (priority 2005, published 2009)
